Measured values from US20130164379A1, “NANOPARTICLE MICELLE COATED COMPOSITIONS” (priority 2011, published 2013).

How the values were obtained:
[1] = system: U2OS-C3 osteosarcoma cells; test: Immunoblotting for caspase-3 cleavage, thiostrepton and bortezomib; format: cell-based, human; conditions: U2OS-C3, sub-apoptotic concentrations, 24 hr
Protocol: U2OS-C3 osteosarcoma, PA-1 ovarian, HCT116 colon and MiaPaca-2 pancreatic cancer cells were cultured in DMEM medium (Invitrogen). HCT-116 and MiaPaca-2 (shFOXM1) cells were cultured in DMEM medium (Invitrogen). MDA-MB231 (parental and shFOXM1) cells were grown in RPMI-1640 medium (Invitrogen). The media were supplemented with 10% fetal bovine serum (Atlanta Biologicals) and 1% penicillin-streptomycin (GIBCO) and the cells were kept at 37° C. in 5% CO2. Stable cell lines were generated by transduction of FOXM1 shRNA lentiviral particles (Sigma) followed by selection with puromycin (Sigma).
Actively dividing cells were seeded into a 100-mm plate at a density of 7.5×10^5 cells. […] Cells were lysed in IP buffer (20 mM HEPES, 1% Triton X-100, 150 mM NaCl, 1 mM EDTA, 1 mM EGTA, 100 mM NaF, 10 mM Na4P2O7, 1 mM sodium orthovanadate, 0.2 mM PMSF supplemented with protease inhibitor tablet and the protein concentration was determined using the Bio-Rad protein assay reagent. Fifty micrograms of the cell lysates were separated by electrophoresis on SDS-polyacrylamide mini gel and transferred to PVDF membrane Immunoblotting was performed with specific antibodies for cleaved caspase-3 (9664 Cell Signaling), FOXM1 (Dr. Costa) and β-actin (A5441, Sigma).

[2] = system: DEN/PB hepatocellular carcinoma mouse model
Protocol: The efficacy of nanoparticle micelle coated compositions containing thiostrepton in inhibiting tumor growth in DEN/PB hepatocellular carcinoma mouse model was evaluated.
Spontaneous induction of HCC was achieved by intraperitonial injection of the carcinogen diethylnitrosamine (DEN) into 2-day-old neonatal BALB/C mice. Carcinogenesis was further induced by continuing the mice on phenobarbital (PB)-doped drinking water (1 mg/mL). […] As a treatment schedule, animals were treated once every other day (3 times a week) for 5 weeks before sacrifice, after which livers were removed and examined for visible tumor growth (FIG. 14b).
Animal livers were then fixed in 4% paraformaldehyde, embedded in paraffin wax and the right lobe of embedded livers were sectioned and stained with H&E for quantitative analysis of carcinoma formation.

purified proteasomes = molecular target: T1, purified proteasomes (Homo sapiens, UniProt P28072); test: Proteasome activity assay on purified proteasomes; format: biochemical; conditions: bortezomib 5 nM, thiostrepton 20 μM
T1 construct: purchased Enzo
Protocol: To assay proteasome inhibitor activities of proteasome inhibitors purified proteasomes, (0.5 μg, 1 μg/μL) were pre-incubated with inhibitors bortezomib (5 nM, 1 μL of 0.5 μM in DMSO) and/or thiostrepton (20 μM, 1 μL of 2 mM) in 10× assay buffer (10 μL) and H2O (88.5 μL) for 30 min at room temperature. Ac-YVAD-amc substrate (10 μL, 0.5 mM) was then added and the assay solution was incubated at […] for 2 hr, after which solutions were examined for fluorescence at excitation wavelength of 340 nm and emission wavelength of 505 nm. Values are represented as a % of the proteasome activity of non-inhibited proteasomes.

HCT-116 cells = test: Detection of apoptosis by annexin V-PE/7AAD flow cytometry; format: cell-based, human; conditions: HCT-116, 0.75 μM thiostrepton, 10 nM bortezomib, 24 hr; single drugs over the control
Protocol: The AnnexinV-PE staining kit (559763, BD Bio. Sci.) was used for the detection of apoptotic bodies following the vendor's protocol. This kit uses a dual-staining protocol in which the cells show fluorescence of Annexin V (apoptotic cells) and fluorescence of 7AAD (necrotic cells or late apoptotic cells). Briefly the tumor cells were grown at a density of 50% confluence in 100-mm culture dishes and were treated with varying concentrations of the drugs for 24 hr. The cells were trypsinized, washed with PBS, and were processed for labeling with annexinV-7AAD. The labeled cells were analyzed by flow cytometry.

[3] = system: MDA-MB-231-luc solid breast tumor xenografts; test: MDA-MB-231-luc breast tumor xenograft, combination with bortezomib; format: in vivo, athymic mice; conditions: thiostrepton 30 mg/kg i.v., bortezomib 0.5 mg/kg i.p., 5 injections
Protocol: Animals were maintained and treated in accordance with the Animal Care and Use Committee of UIC. […] Treatment began once tumors reached sizes of 100 mm^3. After completion of the dosing schedule, animals were sacrificed and tumors were removed. Tumors were frozen in liquid N2 and kept at −80° C. until further analysis.
Treatments were performed once every two days (3 times a week), during which tumor volumes were monitored with calipers (l×w×h=volume, mm^3). Animals were also weighed once a week. After 5 treatments, animals were sacrificed and tumors removed.
For bioluminescence imaging, animals were injected intraperitonially with 100 mg luciferin/kg 10 min before animals were anaesthetized under isoflurane. Animals were then imaged for tumor-associated bioluminescence (IVIS, Xenogen), where relative units of bioluminescence were quantified as flux (photon/sec) and analyzed with Living Image software.

[4] = Solubility observation of thiostrepton in cell media; format: physicochemical; conditions: DMSO-dissolved thiostrepton added to cell media

SMILES	caspase-3 cleavage [1]	body weights of treated animals compared to non-treated animals ([2]; 3 times a week for 5 weeks)	number of adenomas compared to livers from non-treated animals ([2]; single treatments, H&E sections)	fewer number of visible liver tumors compared to non-treated control animals ([2]; thiostrepton-micelle 30 mg/kg i.v., bortezomib 0.5 mg/kg i.p., 3 times a week for 5 weeks)	inhibition of purified proteasomes (YVAD-amc cleavage) (purified proteasomes)	apoptosis (annexin V-PE/7AAD) (HCT-116 cells)	tumor size / tumor growth compared to non-treated tumors [3]	increase in tumor size compared to the first day of treatment ([3]; 15 days)	solubility [4]
CC(C)C[C@H](NC(=O)[C@H](Cc1ccccc1)NC(=O)c1cnccn1)B(O)O [bortezomib]	little or no caspase-3 cleavage	did not decrease significantly	suppression of the number of adenomas	50%	only slightly hindered	6.9%	slight reduction in tumor growth	6 fold	–
C=C(NC(=O)C(=C)NC(=O)c1csc(C2=N[C@@H]3c4csc(n4)[C@H]4NC(=O)c5csc(n5)[C@H]([C@](C)(O)[C@@H](C)O)NC(=O)[C@H]5CSC(=N5)/C(=C/C)NC(=O)[C@H]([C@@H](C)O)NC(=O)c5csc(n5)[C@]3(CC2)NC(=O)[C@H](C)NC(=O)C(=C)NC(=O)[C@H](C)NC(=O)[C@H]([C@@H](C)CC)N[C@@H]2C=Cc3c([C@H](C)O)cc(nc3[C@H]2O)C(=O)O[C@@H]4C)n1)C(N)=O [thiostrepton]	little or no caspase-3 cleavage	–	–	–	only slightly hindered	6.1%	–	–	highly insoluble
